“Also recorded” adds a separate entry of the source.
Columns and labels:
[1] = tested on: SARG-1 over-expressing PC12 cells; assay: Viability of SARG-1 over-expressing PC12 cultures treated with kinase inhibitors; assay type: cell-based, rat; details: staurosporine at 100 nM, in comparison to vector control cultures
Text: (§1) To examine the expression and function of SARG-1 in a neural cell culture system, standard molecular biology techniques (Sanbrook et al, 1989) were used to clone the rat SARG-1 coding sequence (rSARG-1479) into the pIRESII-EGFP eukaryotic expression vector (Clontech) under the control of a CMV promoter which bicistroni-cally translates through an internal IRES sequence both SARG-1477 and enhanced green fluorescent protein. The rat pheochromocytoma PC12 cell line was maintained in DMEM supplemented with 8% horse serum, 8% fetal calf serum and an antibiotic-antimycotic mix containing 100 units/ml penicillin, 100 μg/ml streptomycin, and 0.25 μg/ml amphotericin B (all from GibcoBRL) in a fully humidified air atmosphere containing 5% CO2 at 37° C. Semi-confluent cultures in 6-well plates were transfected with pIRES2-EGFP-SARG-1 or empty vector for 18 h in the presence of the uptake enhancing cationic lipid mix pFx1 (Invitrogen) at a 6:1 lipid to DNA ratio in serum-free opti-MEN (Gibco). Stable transfectant colonies were picked from separate wells after selection in […] geneticin (Gibco) and clones with similar EGFP fluorescence expanded from independent transfections.
(§2) Over-expression of SARG-1 also enhances terminal differentiation of PC12 cells induced by nerve growth factor (FIG. 14).

[2] = tested on: PC12 cells transfected with empty vector; assay: Vector control PC12 cultures treated with staurosporine; assay type: cell-based, rat; details: 100 nM
Text: as §1, §2

[3] = tested on: SARG-1 over-expressing PC12 cells; assay: Flow cytometrical cell cycle analysis of transfected PC12 cells; assay type: cell-based, rat; details: 100 nM, 24 h, ethanol fixed cells
Text: as §2

[4] = tested on: PC12 cells; details: cited from earlier work

For `COc1cccc(-c2cc(=O)c3ccccc3o2)c1N` [PD 98059], which “effect on viability / cell death” value [1] is on record?
Its value is “No similar effects”.

For `COC(=O)[C@@]1(O)C[C@H]2O[C@]1(C)n1c3ccccc3c3c4c(c5c6ccccc6n2c5c31)C(=O)NC4` [X252a], which “effect on viability / cell death” value [1] is on record?
The value was “No similar effects”.

With `CN[C@@H]1C[C@H]2O[C@@](C)([C@@H]1OC)n1c3ccccc3c3c4c(c5c6ccccc6n2c5c31)C(=O)NC4` [staurosporine] as the molecule, how does the “effect on vector control cultures” value [2] read?
The value was “neurite outgrowth”.

And the “flow cytometry: sub G0/G1 peak / loss of DNA characteristic of apoptosis” value [3]?
Its value is “sub G0/G1 peak characteristic for the induction of apoptosis is seen only in SARG-1 over-expressing cells; also recorded: loss of DNA from ethanol fixed cells”.

And the concentration inducing apoptosis ([4]; Fu et al, 1999)?
The concentration inducing apoptosis was “above 1 mM”.

What about the “concentration inducing neurite outgrowth” value ([4]; Hashimoto and Hagino, 1989) of the same molecule?
Its value is 100 nM.

What about the “effect on viability / cell death” value [1] of the same molecule?
Its value is “rapid loss in viability”.

With `CN(C)CCCn1cc(C2=C(c3c[nH]c4ccccc34)C(=O)NC2=O)c2ccccc21` [Bisindolylmaleimide I] as the molecule, how does the “effect on viability / cell death” value [1] read?
The value was “No similar effects”.
